IC50 data for 5 compounds are collected here from patent US9714240B2 (PharmAkea, Inc., priority 2013, dated 2017).

SMILES strings stand for the structures.

The target of this test is T1, human autotaxin (Homo sapiens, UniProt Q13822).
T1 construct: Conditioned media is collected from confluent Hep3B cells and concentrated 20-fold; endogenous in cells; host or cells: Hep3B human hepatocellular carcinoma cells (concentrated conditioned medium)
Put plainly: Human Autotaxin Assay (choline release from LPC). The format is biochemical. Particulars: ATX in concentrated conditioned media from Hep3B cells, substrate LPC 14:0 100 uM, absorbance at 555 nm. The protocol:
ATX activity is assayed in concentrated conditioned media from Hep3B human hepatocellular carcinoma cells by measuring the amount of choline released from the substrate, lysophosphatidylcholine (LPC) as it is cleaved to LPA. Conditioned media is collected from confluent Hep3B cells and concentrated 20-fold using Centriprep-30 filter devices (Millipore). To assay for autotaxin inhibition, 10-20 μL of the concentrated conditioned media is incubated with 2.5 μL of a test compound in DMSO and 72.5-82.5 μL lyso-PLD buffer (100 mM Tris pH 9, 500 mM NaCl, 5 mM MgCl2, 5 mM CaCl2, 0.05% Triton X-100 in the presence or absence of 0.2% fatty-acid-free human serum albumin) for 15 min at 37° C. After the 15 min incubation, 5 ul of 2 mM LPC (14:0; Avanti Polar Lipids Cat#855575C) diluted in lyso-PLD buffer is added for a final concentration of 100 uM and the incubation continues for 1.5-3 hours at 37° C. 100 μl of a color mix containing 4.5 mM 4-aminoantipyrine, 2.7 mM N-ethyl-N-(2-hydroxy-3-sulfopropyl)-m-toluidine, 21 units/ml horseradish peroxidase and 3 units/ml choline oxidase in 50 mM Tris, pH 8, 4.5 mM MgCl2 is added and the incubation continued for 15 minutes at room temperature before reading the absorbance at 555 nm.
Compound `N#C/C(=C\c1cn(Cc2ccc(F)cc2)c2cc(Cl)ccc12)c1ccc(C(=O)O)nc1` [Compound 2-2, 5-[(Z)-2-[6-chloro-1-[(4-fluorophenyl)methyl]indol-3-yl]-1-cyano-vinyl]pyridine-2-carboxylic Acid] registered an IC50 not above 500 nM.
To `COc1ccc(Cn2cc(/C=C(\C#N)c3ccc(C(=O)O)nc3)c3ccc(Cl)cc32)cn1` [Compound 2-3, 5-[(Z)-2-[6-chloro-1-[(6-methoxy-3-pyridyl)methyl]indol-3-yl]-1-cyano-vinyl]pyridine-2-carboxylic Acid] belongs not above 500 nM; to `N#C/C(=C\c1cn(Cc2ccccc2)c2cc(Cl)ccc12)c1cccc(C(=O)O)c1` [Compound 2-4, 3-[(Z)-2-(1-benzyl-6-chloro-indol-3-yl)-1-cyano-vinyl]benzoic Acid], 500 to 10000 nM.
Turning to `N#C/C(=C\c1cn(Cc2ccc(F)cc2)c2cc(Cl)ccc12)c1ccc(CC(=O)O)cc1` [Compound 2-25, (Z)-2-(4-(2-(6-chloro-1-(4-fluorobenzyl)-1H-indol-3-yl)-1-cyanovinyl)phenyl)acetic Acid], the IC50 was not above 500 nM.
To `N#C/C(=C\c1cn(Cc2ccc(F)cc2)c2cc(Cl)ccc12)c1cccc(C(=O)O)c1` [Compound 2-26] belongs 500 to 10000 nM.

Usually IC50 stands for the point on the concentration scale where inhibition reaches its midpoint. A low value points to greater potency.
